Test system: 233499-124-R-J3-PDC complex spheroid viability
Test: Anticancer human tumor 233499-124-R-J3-PDC patient-derived colon adenocarcinoma cell line growth inhibition [CLK]
Conditions: for IC50: curve of first compound; for viability, T/C: stronger effect = lower value; active means viability on the fitted dose curve at most 10% of control; inactive means the rest
In short: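 Patient-derived tumor cells grown as complex spheroids with HUVEC endothelial cells and mesenchymal stem cells, treated with drug combinations. Concentrations descend in half-log steps from near clinical Cmax, or from 10 microM if Cmax unknown.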

[1] = second compound 0.0316 µM, first compound 0.0316 µM
[2] = second compound 0.0316 µM, first compound 0.1 µM
[3] = second compound 0.0316 µM, first compound 0.316 µM
[4] = second compound 0.0316 µM, first compound 1 µM
[5] = second compound 0.0316 µM, first compound 3.16 µM
[6] = second compound 0.0316 µM, first compound 10 µM
[7] = second compound 0.1 µM, first compound 0.0316 µM
[8] = second compound 0.1 µM, first compound 0.1 µM
[9] = second compound 0.1 µM, first compound 0.316 µM
[10] = second compound 0.1 µM, first compound 1 µM
[11] = second compound 0.1 µM, first compound 3.16 µM
[12] = second compound 0.1 µM, first compound 10 µM
[13] = second compound 0.316 µM, first compound 0.0316 µM
[14] = second compound 0.316 µM, first compound 0.1 µM
[15] = second compound 0.316 µM, first compound 0.316 µM
[16] = second compound 0.316 µM, first compound 1 µM
[17] = second compound 0.316 µM, first compound 3.16 µM
[18] = second compound 0.316 µM, first compound 10 µM
[19] = second compound 1 µM, first compound 0.0316 µM
[20] = second compound 1 µM, first compound 0.1 µM
[21] = second compound 1 µM, first compound 0.316 µM
[22] = second compound 1 µM, first compound 1 µM
[23] = second compound 1 µM, first compound 3.16 µM
[24] = second compound 1 µM, first compound 10 µM
[25] = second compound 3.16 µM, first compound 0.0316 µM
[26] = second compound 3.16 µM, first compound 0.1 µM
[27] = second compound 3.16 µM, first compound 0.316 µM
[28] = second compound 3.16 µM, first compound 1 µM
[29] = second compound 3.16 µM, first compound 3.16 µM
[30] = second compound 3.16 µM, first compound 10 µM
[31] = second compound 10 µM, first compound 0.0316 µM
[32] = second compound 10 µM, first compound 0.1 µM
[33] = second compound 10 µM, first compound 0.316 µM
[34] = second compound 10 µM, first compound 1 µM
[35] = second compound 10 µM, first compound 3.16 µM
[36] = second compound 10 µM, first compound 10 µM
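Further: spheroids exposed to the drug combinations for seven days.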
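Wherever viability, T/C is given: percent viability relative to DMSO vehicle control wells taken as 100%.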

CCCS(=O)(=O)Nc1ccc(F)c(C(=O)c2c[nH]c3ncc(-c4ccc(Cl)cc4)cc23)c1F + CNC(=O)c1ccc(Nc2nc(OC3CCCC3)c3c(-c4ccc5nc(C)oc5c4)c[nH]c3n2)c(OC)c1
5.07 µM: IC50 (second compound 3.16 µM)
4.15 µM: IC50 (second compound 10 µM)
inactive: viability, T/C [1] 89.6% | viability, T/C [2] 96.5% | viability, T/C [3] 103% | viability, T/C [4] 102% | viability, T/C [5] 97.9% | viability, T/C [6] 64.9% | viability, T/C [7] 75.7% | viability, T/C [8] 86.8% | viability, T/C [9] 82.2% | viability, T/C [10] 86.8% | viability, T/C [11] 85.5% | viability, T/C [12] 50% | viability, T/C [13] 75.9% | viability, T/C [14] 87.4% | viability, T/C [15] 90.6% | viability, T/C [16] 90.3% | viability, T/C [17] 90.3% | viability, T/C [18] 43.4% | viability, T/C [19] 90.1% | viability, T/C [20] 90.5% | viability, T/C [21] 78.7% | viability, T/C [22] 85.3% | viability, T/C [23] 91% | viability, T/C [24] 18% | viability, T/C [25] 76.1% | viability, T/C [26] 90.1% | viability, T/C [27] 84.6% | viability, T/C [28] 83.6% | viability, T/C [29] 76.5% | viability, T/C [30] 11.9% | viability, T/C [31] 76.7% | viability, T/C [32] 78.4% | viability, T/C [33] 79.2% | viability, T/C [34] 81.3% | viability, T/C [35] 60.9% | viability, T/C [36] 14.6%
8.4 µM: IC50 (second compound 0.316 µM)
> 10 µM: IC50 (second compound 0.0316 µM) | IC50 (second compound 0.1 µM)
5.87 µM: IC50 (second compound 1 µM)

O=c1[nH]cc(F)c(=O)[nH]1 + CNC(=O)c1ccc(Nc2nc(OC3CCCC3)c3c(-c4ccc5nc(C)oc5c4)c[nH]c3n2)c(OC)c1
0.316 µM: IC50 (second compound 0.0316 µM)
0.166 µM: IC50 (second compound 0.316 µM) | IC50 (second compound 1 µM)
active: viability, T/C [22] 11.4% | viability, T/C [23] 7.78% | viability, T/C [24] 9.54% | viability, T/C [29] 7.07% | viability, T/C [30] 6.87%
0.195 µM: IC50 (second compound 10 µM)
inactive: viability, T/C [1] 91.5% | viability, T/C [2] 95.7% | viability, T/C [3] 49.8% | viability, T/C [4] 28.5% | viability, T/C [5] 20.1% | viability, T/C [6] 19.1% | viability, T/C [7] 73% | viability, T/C [8] 72.4% | viability, T/C [9] 35.2% | viability, T/C [10] 21.4% | viability, T/C [11] 15.1% | viability, T/C [12] 20.4% | viability, T/C [13] 81% | viability, T/C [14] 60.5% | viability, T/C [15] 36.8% | viability, T/C [16] 20.7% | viability, T/C [17] 14.9% | viability, T/C [18] 16.5% | viability, T/C [19] 70.6% | viability, T/C [20] 68.7% | viability, T/C [21] 26.2% | viability, T/C [25] 70.8% | viability, T/C [26] 63.1% | viability, T/C [27] 26.9% | viability, T/C [28] 15.5% | viability, T/C [31] 69.6% | viability, T/C [32] 75.3% | viability, T/C [33] 33.6% | viability, T/C [34] 16% | viability, T/C [35] 7.38% | viability, T/C [36] 8.24%
0.15 µM: IC50 (second compound 3.16 µM)
0.199 µM: IC50 (second compound 0.1 µM)

Source: PubChem BioAssay AID2060613 (Molecular Pharmacology Branch, DTP, NCI, 2025)
